Laboratory results: the kinase profiling compilation of Christmann-Franck et al. (2016)

Legend:
Test in all cases: radiometric filter-binding kinase assay
CSK (human) = CSK (human) (UniProt P41240)
MAPK12 (human) = MAPK12 (human) (UniProt P53778)
JAK2 JH1 JH2 (human) = JAK2 JH1 JH2 (human) (UniProt O60674); settings: compound 1.0 µM
MAP3K11 (human) = MAP3K11 (human) (UniProt Q16584)
SYK (human) = SYK (human) (UniProt P43405); settings: compound 10.0 µM
AURKA (human) = AURKA (human) (UniProt O14965)
Chain of AURKA (human) (O14965 whole entry, looked up): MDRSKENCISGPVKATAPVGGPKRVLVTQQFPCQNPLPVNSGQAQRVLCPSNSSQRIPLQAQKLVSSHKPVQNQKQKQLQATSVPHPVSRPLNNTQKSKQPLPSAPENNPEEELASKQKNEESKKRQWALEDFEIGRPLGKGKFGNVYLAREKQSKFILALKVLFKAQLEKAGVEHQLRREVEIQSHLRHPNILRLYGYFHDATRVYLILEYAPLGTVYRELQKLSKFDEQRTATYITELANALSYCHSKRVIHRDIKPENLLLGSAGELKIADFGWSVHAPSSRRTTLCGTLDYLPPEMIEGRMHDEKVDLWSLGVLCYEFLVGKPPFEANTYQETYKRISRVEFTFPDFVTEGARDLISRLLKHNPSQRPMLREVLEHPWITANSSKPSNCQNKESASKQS

CLK2 (human) = CLK2 (human) (UniProt P49760)
CDK2 CCNA2 (human) = CDK2 CCNA2 (human) (UniProt P20248+P24941)
MARK4 (human) = MARK4 (human) (UniProt Q96L34)
MYLK (human) = MYLK (human) (UniProt Q15746); settings: compound 1.0 µM
FLT1 (human) = FLT1 (human) (UniProt P17948)
EPHA4 (human) = EPHA4 (human) (UniProt P54764)
Chain of EPHA4 (human) (P54764 whole entry, looked up): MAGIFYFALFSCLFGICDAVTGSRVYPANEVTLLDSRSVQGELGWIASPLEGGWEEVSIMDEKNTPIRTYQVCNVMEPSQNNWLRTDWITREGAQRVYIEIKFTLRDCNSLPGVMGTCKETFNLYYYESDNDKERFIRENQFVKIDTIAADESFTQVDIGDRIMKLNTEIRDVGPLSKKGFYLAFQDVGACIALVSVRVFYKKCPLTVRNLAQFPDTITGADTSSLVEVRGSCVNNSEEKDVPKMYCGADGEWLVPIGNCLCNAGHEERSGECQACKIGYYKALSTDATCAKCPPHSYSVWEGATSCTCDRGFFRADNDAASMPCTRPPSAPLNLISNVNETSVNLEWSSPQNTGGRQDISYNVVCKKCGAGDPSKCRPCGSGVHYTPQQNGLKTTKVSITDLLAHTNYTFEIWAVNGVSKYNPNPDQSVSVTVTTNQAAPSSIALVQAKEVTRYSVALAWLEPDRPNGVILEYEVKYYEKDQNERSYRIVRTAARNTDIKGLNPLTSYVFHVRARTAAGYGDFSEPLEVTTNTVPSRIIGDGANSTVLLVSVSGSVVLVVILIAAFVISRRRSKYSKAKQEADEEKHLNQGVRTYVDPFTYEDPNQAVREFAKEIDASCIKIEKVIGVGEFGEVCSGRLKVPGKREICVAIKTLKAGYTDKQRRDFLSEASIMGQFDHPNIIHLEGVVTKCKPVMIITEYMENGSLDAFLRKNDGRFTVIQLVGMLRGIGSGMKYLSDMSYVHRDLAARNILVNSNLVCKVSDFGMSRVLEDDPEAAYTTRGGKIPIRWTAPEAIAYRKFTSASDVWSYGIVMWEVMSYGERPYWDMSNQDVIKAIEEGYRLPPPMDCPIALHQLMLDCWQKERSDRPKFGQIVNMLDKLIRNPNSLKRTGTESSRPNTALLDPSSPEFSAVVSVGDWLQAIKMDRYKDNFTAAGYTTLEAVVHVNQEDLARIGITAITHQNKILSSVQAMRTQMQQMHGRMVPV

[1] = system: SGK1 (human), O00141 [S422D]
Chain of SGK1 (human), O00141 [S422D] (O00141 whole entry S422D, looked up): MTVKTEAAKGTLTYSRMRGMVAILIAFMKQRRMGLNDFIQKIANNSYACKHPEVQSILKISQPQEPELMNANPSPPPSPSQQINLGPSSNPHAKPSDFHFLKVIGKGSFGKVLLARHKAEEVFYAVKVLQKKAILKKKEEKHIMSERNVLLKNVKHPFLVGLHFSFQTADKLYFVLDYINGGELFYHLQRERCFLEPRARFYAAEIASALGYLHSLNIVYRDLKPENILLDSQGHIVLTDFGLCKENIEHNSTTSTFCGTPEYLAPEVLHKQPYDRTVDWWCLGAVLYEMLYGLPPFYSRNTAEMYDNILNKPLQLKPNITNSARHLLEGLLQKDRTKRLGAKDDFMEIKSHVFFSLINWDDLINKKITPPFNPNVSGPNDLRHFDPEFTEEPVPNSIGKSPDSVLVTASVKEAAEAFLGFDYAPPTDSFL

MAP2K2 (human) = MAP2K2 (human) (UniProt P36507)
INSRR (human) = INSRR (human) (UniProt P14616)
EPHB2 (human) = EPHB2 (human) (UniProt P29323)
Chain of EPHB2 (human) (P29323 whole entry, looked up): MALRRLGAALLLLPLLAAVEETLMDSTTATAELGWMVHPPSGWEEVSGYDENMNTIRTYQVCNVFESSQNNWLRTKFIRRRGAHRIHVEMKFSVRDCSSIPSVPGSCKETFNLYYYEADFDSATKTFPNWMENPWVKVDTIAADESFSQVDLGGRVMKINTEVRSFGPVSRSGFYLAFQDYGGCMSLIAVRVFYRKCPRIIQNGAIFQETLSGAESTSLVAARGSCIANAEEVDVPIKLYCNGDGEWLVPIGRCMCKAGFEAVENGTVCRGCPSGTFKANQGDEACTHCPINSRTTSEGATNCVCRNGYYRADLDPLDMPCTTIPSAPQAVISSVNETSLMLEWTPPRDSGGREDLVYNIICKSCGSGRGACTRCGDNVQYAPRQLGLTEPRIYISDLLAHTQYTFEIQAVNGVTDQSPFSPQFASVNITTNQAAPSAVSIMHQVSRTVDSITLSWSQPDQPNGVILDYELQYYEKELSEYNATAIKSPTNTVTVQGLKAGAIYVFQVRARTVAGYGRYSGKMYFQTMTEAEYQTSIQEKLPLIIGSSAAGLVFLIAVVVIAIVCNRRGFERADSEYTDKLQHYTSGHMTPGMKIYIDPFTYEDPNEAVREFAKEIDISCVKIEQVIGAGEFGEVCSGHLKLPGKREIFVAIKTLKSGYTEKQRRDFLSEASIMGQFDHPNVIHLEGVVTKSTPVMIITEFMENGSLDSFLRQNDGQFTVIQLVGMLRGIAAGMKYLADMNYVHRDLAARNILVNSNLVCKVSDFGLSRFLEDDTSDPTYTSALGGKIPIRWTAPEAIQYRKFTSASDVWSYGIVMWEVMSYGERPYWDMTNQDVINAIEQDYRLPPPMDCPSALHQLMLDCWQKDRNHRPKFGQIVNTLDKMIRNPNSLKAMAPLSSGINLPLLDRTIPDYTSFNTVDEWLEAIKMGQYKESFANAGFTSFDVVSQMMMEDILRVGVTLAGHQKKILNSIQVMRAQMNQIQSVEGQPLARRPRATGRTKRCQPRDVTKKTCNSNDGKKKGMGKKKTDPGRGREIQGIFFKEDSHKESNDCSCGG

IRAK4 (human) = IRAK4 (human) (UniProt Q9NWZ3)
[2] = system: RPS6KB1 (human), P23443 [T412E]
PIM3 (human) = PIM3 (human) (UniProt Q86V86)
MAPKAPK3 (human) = MAPKAPK3 (human) (UniProt Q16644)
INSR (human) = INSR (human) (UniProt P06213)
MELK (human) = MELK (human) (UniProt Q14680)
Chain of MELK (human) (Q14680 whole entry, looked up): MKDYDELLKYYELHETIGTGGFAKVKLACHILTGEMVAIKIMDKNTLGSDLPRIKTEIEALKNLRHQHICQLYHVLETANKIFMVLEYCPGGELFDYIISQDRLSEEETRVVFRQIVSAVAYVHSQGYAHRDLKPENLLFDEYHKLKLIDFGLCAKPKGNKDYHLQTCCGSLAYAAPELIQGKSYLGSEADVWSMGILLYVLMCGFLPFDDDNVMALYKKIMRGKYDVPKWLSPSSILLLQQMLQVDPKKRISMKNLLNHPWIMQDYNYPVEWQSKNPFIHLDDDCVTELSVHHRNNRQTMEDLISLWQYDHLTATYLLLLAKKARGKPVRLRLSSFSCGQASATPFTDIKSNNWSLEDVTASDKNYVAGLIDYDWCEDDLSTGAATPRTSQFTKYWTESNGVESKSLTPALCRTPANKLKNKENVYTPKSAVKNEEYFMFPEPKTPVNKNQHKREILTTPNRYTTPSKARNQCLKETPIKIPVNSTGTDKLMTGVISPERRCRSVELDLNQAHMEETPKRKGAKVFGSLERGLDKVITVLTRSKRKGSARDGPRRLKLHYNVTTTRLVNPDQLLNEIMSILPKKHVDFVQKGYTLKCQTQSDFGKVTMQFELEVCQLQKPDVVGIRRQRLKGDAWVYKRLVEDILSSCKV

BRSK1 (human) = BRSK1 (human) (UniProt Q8TDC3)
CSNK1D (human) = CSNK1D (human) (UniProt P48730)
RIPK2 (human) = RIPK2 (human) (UniProt O43353)
Chain of RIPK2 (human) (O43353 whole entry, looked up): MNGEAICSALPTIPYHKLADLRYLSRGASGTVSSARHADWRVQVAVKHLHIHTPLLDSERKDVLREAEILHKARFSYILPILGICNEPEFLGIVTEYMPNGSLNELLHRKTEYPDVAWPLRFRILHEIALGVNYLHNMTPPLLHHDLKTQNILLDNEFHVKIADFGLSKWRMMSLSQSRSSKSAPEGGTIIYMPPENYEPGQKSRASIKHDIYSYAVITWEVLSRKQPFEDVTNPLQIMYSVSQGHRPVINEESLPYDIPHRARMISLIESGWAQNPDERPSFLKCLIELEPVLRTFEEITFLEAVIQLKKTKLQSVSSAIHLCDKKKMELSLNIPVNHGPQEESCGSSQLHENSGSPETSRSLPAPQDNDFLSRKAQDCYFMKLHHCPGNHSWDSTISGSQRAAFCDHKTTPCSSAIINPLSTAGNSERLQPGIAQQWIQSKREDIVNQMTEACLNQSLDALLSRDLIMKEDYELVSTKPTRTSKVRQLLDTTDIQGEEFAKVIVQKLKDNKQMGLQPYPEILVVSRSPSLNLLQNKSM

PLK1 (human) = PLK1 (human) (UniProt P53350)
MAPK8 (human) = MAPK8 (human) (UniProt P45983)
BRSK2 (human) = BRSK2 (human) (UniProt Q8IWQ3)
MAP3K7 TAB1 (human) = MAP3K7 TAB1 (human) (UniProt Q15750+O43318)
TBK1 (human) = TBK1 (human) (UniProt Q9UHD2); settings: compound 10.0 µM
[3] = system: PAK2 (human), Q13177 [T402E]
Chain of PAK2 (human), Q13177 [T402E] (Q13177 whole entry T402E, looked up): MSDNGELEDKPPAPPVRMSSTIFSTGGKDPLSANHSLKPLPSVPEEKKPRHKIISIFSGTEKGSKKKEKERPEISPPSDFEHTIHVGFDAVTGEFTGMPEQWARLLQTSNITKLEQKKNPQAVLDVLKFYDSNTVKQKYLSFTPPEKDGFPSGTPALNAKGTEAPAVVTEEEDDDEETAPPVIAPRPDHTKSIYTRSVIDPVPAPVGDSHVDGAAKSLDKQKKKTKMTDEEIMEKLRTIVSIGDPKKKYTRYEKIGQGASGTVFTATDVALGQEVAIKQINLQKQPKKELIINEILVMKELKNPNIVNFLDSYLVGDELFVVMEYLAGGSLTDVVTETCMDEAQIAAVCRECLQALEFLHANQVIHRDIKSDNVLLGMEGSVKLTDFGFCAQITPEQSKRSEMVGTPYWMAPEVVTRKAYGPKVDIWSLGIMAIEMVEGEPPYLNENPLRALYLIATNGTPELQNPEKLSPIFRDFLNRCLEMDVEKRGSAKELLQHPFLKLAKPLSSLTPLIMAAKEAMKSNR

TTK (human) = TTK (human) (UniProt P33981)
PIM1 (human) = PIM1 (human) (UniProt P11309)
Chain of PIM1 (human) (P11309 whole entry, looked up): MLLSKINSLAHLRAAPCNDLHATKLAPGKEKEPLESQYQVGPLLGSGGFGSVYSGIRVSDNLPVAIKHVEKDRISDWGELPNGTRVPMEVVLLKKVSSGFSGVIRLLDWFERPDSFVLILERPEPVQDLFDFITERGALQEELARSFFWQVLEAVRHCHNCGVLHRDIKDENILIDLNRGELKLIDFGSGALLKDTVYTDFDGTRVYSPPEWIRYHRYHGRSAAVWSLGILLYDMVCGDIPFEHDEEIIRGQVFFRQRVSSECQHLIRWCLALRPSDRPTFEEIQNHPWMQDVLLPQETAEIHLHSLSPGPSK

FGFR1 (human) = FGFR1 (human) (UniProt P11362); settings: compound 1.0 µM

`NCC(=O)Nc1ccc(-n2nc(C(F)(F)F)cc2-c2ccc3c(ccc4ccccc43)c2)cc1` showed a residual activity (CSK (human); compound 1.0 µM) of 97%, a residual activity (CSK (human); compound 10.0 µM) of 85% and a residual activity (MAPK12 (human); compound 1.0 µM) of 94%. It also gave a residual activity (MAPK12 (human); compound 10.0 µM) of 70%, a residual activity (JAK2 JH1 JH2 (human)) of 101% and a residual activity (MAP3K11 (human); compound 1.0 µM) of 94%. It also gave a residual activity (MAP3K11 (human); compound 10.0 µM) of 87%, a residual activity (SYK (human)) of 85% and a residual activity (AURKA (human); compound 1.0 µM) of 95%. For the same compound, the residual activity (AURKA (human); compound 10.0 µM) was 107%, the residual activity (CLK2 (human); compound 1.0 µM) was 93% and the residual activity (CLK2 (human); compound 10.0 µM) was 64%. It also gave a residual activity (CDK2 CCNA2 (human); compound 1.0 µM) of 95%, a residual activity (CDK2 CCNA2 (human); compound 10.0 µM) of 95% and a residual activity (MARK4 (human); compound 1.0 µM) of 88%. It also gave a residual activity (MARK4 (human); compound 10.0 µM) of 102%, a residual activity (MYLK (human)) of 109% and a residual activity (FLT1 (human); compound 1.0 µM) of 79%. For the same compound, the residual activity (FLT1 (human); compound 10.0 µM) was 89%, the residual activity (EPHA4 (human); compound 1.0 µM) was 80% and the residual activity (EPHA4 (human); compound 10.0 µM) was 91%. It also gave a residual activity ([1]; compound 1.0 µM) of 71%, a residual activity ([1]; compound 10.0 µM) of 30% and a residual activity (MAP2K2 (human); compound 1.0 µM) of 123%. The residual activity (MAP2K2 (human); compound 10.0 µM) was 113%, the residual activity (INSRR (human); compound 1.0 µM) was 91% and the residual activity (INSRR (human); compound 10.0 µM) was 75%. The residual activity (EPHB2 (human); compound 1.0 µM) was 82%, the residual activity (EPHB2 (human); compound 10.0 µM) was 91% and the residual activity (IRAK4 (human); compound 1.0 µM) was 84%. It also gave a residual activity (IRAK4 (human); compound 10.0 µM) of 79%, a residual activity ([2]; compound 1.0 µM) of 86% and a residual activity ([2]; compound 10.0 µM) of 21%. The residual activity (PIM3 (human); compound 1.0 µM) was 99%, the residual activity (PIM3 (human); compound 10.0 µM) was 64% and the residual activity (MAPKAPK3 (human); compound 1.0 µM) was 103%. For the same compound, the residual activity (MAPKAPK3 (human); compound 10.0 µM) was 97%, the residual activity (INSR (human); compound 1.0 µM) was 98% and the residual activity (INSR (human); compound 10.0 µM) was 94%. The residual activity (MELK (human); compound 1.0 µM) was 92%, the residual activity (MELK (human); compound 10.0 µM) was 75% and the residual activity (BRSK1 (human); compound 1.0 µM) was 83%. It also gave a residual activity (BRSK1 (human); compound 10.0 µM) of 89%, a residual activity (CSNK1D (human); compound 1.0 µM) of 96% and a residual activity (CSNK1D (human); compound 10.0 µM) of 93%. The residual activity (RIPK2 (human); compound 1.0 µM) was 93%, the residual activity (RIPK2 (human); compound 10.0 µM) was 81% and the residual activity (PLK1 (human); compound 1.0 µM) was 95%. It also gave a residual activity (PLK1 (human); compound 10.0 µM) of 111%, a residual activity (MAPK8 (human); compound 1.0 µM) of 107% and a residual activity (MAPK8 (human); compound 10.0 µM) of 103%. It also gave a residual activity (BRSK2 (human); compound 1.0 µM) of 76%, a residual activity (BRSK2 (human); compound 10.0 µM) of 64% and a residual activity (MAP3K7 TAB1 (human); compound 1.0 µM) of 74%. The residual activity (MAP3K7 TAB1 (human); compound 10.0 µM) was 36%, the residual activity (TBK1 (human)) was 83% and the residual activity ([3]; compound 1.0 µM) was 107%. The residual activity ([3]; compound 10.0 µM) was 75%, the residual activity (TTK (human); compound 1.0 µM) was 90% and the residual activity (TTK (human); compound 10.0 µM) was 86%. For the same compound, the residual activity (PIM1 (human); compound 1.0 µM) was 92%, the residual activity (PIM1 (human); compound 10.0 µM) was 94% and the residual activity (FGFR1 (human)) was 111%.
